Measurements: US20120171274A1, “TRANSDERMAL PATCH” (priority 2006, published 2012)

How the values were obtained:
Type in all cases: physicochemical
[1] = Solvency of the active substance in monomer (visual inspection); parameters: key: Excellent: The active substance was not found to have been precipitated in the solution of active substance both immediately after the preparation and after the preservation for 7 days.; Good: The active substance was found to have been precipitated in the solution of active substance immediately after the preparation, but the active substance was not found to have been precipitated in the solution of active substance after the preservation for 7 days.; Poor: The active substance was found to have been precipitated in the solution of active substance both immediately after the preparation and after the preservation for 7 days; details: 3 parts active substance per 100 parts monomer, 25° C., 7 days
[2] = Residual rate of the active substance in monomer solution (HPLC); details: for Residual Rate of active substance, Immediately after Preparation: 3 parts per 100 parts monomer; for Residual Rate of active substance, after 7 Days: preserved at 25° C. for 7 days
[3] = Solvency of DMAE in fatty acid ester or additive; details: 50 parts DMAE in 950 parts, 25° C.
Procedure: When a crystal of DMAE was precipitated […], and when a crystal of DMAE was not precipitated, the solvency was evaluated to be “poor”.

[4] = Solubility of DMAE at 25° C. (HPLC); details: g per 100 g of solvent
[5] = monomer: 2-Ethylhexyl Methacrylate

COc1ccc(OC)c(C(O)CN)c1 (stereo not shown) [DMAE, 2-amino-1-(2′,5′-dimethoxyphenyl)ethanol]
Solvency of active substance ([1]; monomer: 1-Vinyl-2-Pyrrolidone): Poor
Solvency of active substance ([1]; monomer: 2-Ethylhexyl Acrylate): Poor
Solvency of active substance [1, 5]: Poor
Solvency of active substance ([1]; monomer: Acrylic Acid): Excellent
Solvency of active substance ([1]; monomer: Butyl Acrylate): Good
Solvency of active substance ([1]; monomer: Butyl Methacrylate): Poor
Solvency of active substance ([1]; monomer: Dodecyl Methacrylate): Poor
Solvency of active substance ([1]; monomer: Ethyl Acrylate): Excellent
Residual Rate of active substance, Immediately after Preparation ([2]; monomer: 1-Vinyl-2-Pyrrolidone): 100 % by weight
Residual Rate of active substance, after 7 Days ([2]; monomer: 1-Vinyl-2-Pyrrolidone): 100 % by weight
Residual Rate of active substance, Immediately after Preparation ([2]; monomer: 2-Ethylhexyl Acrylate): 39 % by weight
Residual Rate of active substance, after 7 Days ([2]; monomer: 2-Ethylhexyl Acrylate): 11 % by weight
Residual Rate of active substance, Immediately after Preparation [2, 5]: 99 % by weight
Residual Rate of active substance, after 7 Days [2, 5]: 99 % by weight
Residual Rate of active substance, Immediately after Preparation ([2]; monomer: Acrylic Acid): 99 % by weight
Residual Rate of active substance, after 7 Days ([2]; monomer: Acrylic Acid): 97 % by weight
Residual Rate of active substance, Immediately after Preparation ([2]; monomer: Butyl Acrylate): 27 % by weight
Residual Rate of active substance, Immediately after Preparation ([2]; monomer: Butyl Methacrylate): 98 % by weight
Residual Rate of active substance, after 7 Days ([2]; monomer: Butyl Methacrylate): 98 % by weight
Residual Rate of active substance, Immediately after Preparation ([2]; monomer: Dodecyl Methacrylate): 100 % by weight
Residual Rate of active substance, after 7 Days ([2]; monomer: Dodecyl Methacrylate): 99 % by weight
Solvency of DMAE ([3]; solvent Butylene Glycol): Poor
Solvency of DMAE ([3]; solvent Diethyl Sebacate): Excellent
Solvency of DMAE ([3]; solvent Hexyl Laurate): Excellent
Solvency of DMAE ([3]; solvent Isopropyl Myristate): Excellent
Solvency of DMAE ([3]; solvent Isopropyl Palmitate): Excellent
Solvency of DMAE ([3]; solvent Isostearic Acid): Poor
Solvency of DMAE ([3]; solvent Liquid Paraffin): Excellent
Solvency of DMAE ([3]; solvent Medium-chain Triglyceride): Excellent
Solvency of DMAE ([3]; solvent Monoethanolamine): Poor
Solvency of DMAE ([3]; solvent Octanediol): Poor
Solvency of DMAE ([3]; solvent Octyldodecyl Myristate): Excellent
Solvency of DMAE ([3]; solvent Oleic Acid): Excellent
Solvency of DMAE ([3]; solvent Oleyl Alcohol): Excellent
Solvency of DMAE ([3]; solvent Polyoxyethylene (2) Lauryl Ether): Excellent
Solvency of DMAE ([3]; solvent Propylene Glycol): Poor
Solvency of DMAE ([3]; solvent Squalane): Excellent
Solvency of DMAE ([3]; solvent Triacetin): Poor
Solubility of DMAE ([4]; in Diethyl Sebacate): 0.9 g
Solubility of DMAE ([4]; in Hexyl Laurate): 0.2 g
Solubility of DMAE ([4]; in Isopropyl Myristate): 0.2 g
Solubility of DMAE ([4]; in Isopropyl Palmitate): 0.2 g
Solubility of DMAE ([4]; in Liquid Paraffin): 0.02 g
Solubility of DMAE ([4]; in Medium-chain Triglyceride): 0.3 g
Solubility of DMAE ([4]; in Octyldodecyl Myristate): 0.05 g
Solubility of DMAE ([4]; in Oleic Acid): 3.7 g
Solubility of DMAE ([4]; in Oleyl Alcohol): 2.5 g
Solubility of DMAE ([4]; in Polyoxyethylene (2) Lauryl Ether): 3.7 g
Solubility of DMAE ([4]; in Squalane): 0.01 g
